Legend:
[1] = xn = mol fraction of the nth substance listed; conditions: 101 kPa, Liquid
[2] = refractive index (Na D-line) (dimensionless); xn = mol fraction of the nth substance listed; conditions: 101 kPa, Liquid

COc1ccccc1 [anisole] + CN(C)C=O
Conditions | mass density, 298.15 K [kg/m3] | mass density, 303.15 K [kg/m3] | mass density, 308.15 K [kg/m3] | refractive index, 298.15 K | refractive index, 303.15 K | refractive index, 308.15 K | speed of sound, 298.15 K [m/s] | viscosity, 298.15 K [mPa·s] | viscosity, 303.15 K [mPa·s] | viscosity, 308.15 K [mPa·s]
[1], x1 = 0.1004 | 951 | 946.6 | 942.3 | – | – | – | 1456 | 0.833 | 0.787 | 0.739
[1], x1 = 0.196 | 957 | 952.7 | 948.2 | – | – | – | 1451 | 0.859 | 0.81 | 0.76
[1], x1 = 0.2939 | 962.9 | 958.2 | 953.9 | – | – | – | 1445 | 0.886 | 0.833 | 0.78
[1], x1 = 0.3966 | 968.5 | 964.1 | 959.7 | – | – | – | 1438 | 0.912 | 0.856 | 0.799
[1], x1 = 0.4975 | 973.4 | 968.8 | 964.4 | – | – | – | 1432 | 0.937 | 0.878 | 0.819
[1], x1 = 0.5983 | 977.6 | 973.2 | 968.7 | – | – | – | 1427 | 0.957 | 0.897 | 0.836
[1], x1 = 0.6953 | 981.2 | 976.9 | 972.4 | – | – | – | 1422 | 0.977 | 0.913 | 0.851
[1], x1 = 0.7984 | 984.7 | 980.3 | 975.9 | – | – | – | 1418 | 0.994 | 0.928 | 0.863
[1], x1 = 0.9042 | 987.7 | 983.3 | 978.5 | – | – | – | 1413 | 1.006 | 0.938 | 0.871
[1], x1 = 1 | 988.9 | 984.1 | 979.4 | – | – | – | 1410 | 0.992 | 0.919 | 0.853
[2], x1 = 0.1004 | – | – | – | 1.4407 | 1.4381 | 1.4356 | – | – | – | –
[2], x1 = 0.196 | – | – | – | 1.4513 | 1.4487 | 1.4462 | – | – | – | –
[2], x1 = 0.2939 | – | – | – | 1.4614 | 1.4587 | 1.4558 | – | – | – | –
[2], x1 = 0.3966 | – | – | – | 1.4708 | 1.4683 | 1.4656 | – | – | – | –
[2], x1 = 0.4975 | – | – | – | 1.4798 | 1.4771 | 1.4744 | – | – | – | –
[2], x1 = 0.5983 | – | – | – | 1.4878 | 1.4852 | 1.4825 | – | – | – | –
[2], x1 = 0.6953 | – | – | – | 1.4953 | 1.4928 | 1.4902 | – | – | – | –
[2], x1 = 0.7984 | – | – | – | 1.5024 | 1.5 | 1.4973 | – | – | – | –
[2], x1 = 0.9042 | – | – | – | 1.5099 | 1.5071 | 1.5043 | – | – | – | –
[2], x1 = 1 | – | – | – | 1.5148 | 1.5124 | 1.5092 | – | – | – | –

— the NIST ThermoML archive (doi:10.1021/je049610v)
